Results as given in paper PMC11378298 (ACS Chemical Neuroscience, 2024).
Values joined by “and” are separate entries in the source; they are usually repeats but may differ in a detail not shown here. Identical values can stand only once.

Experiments:
[1] = human liver microsomes; for % of the compound remaining after 2 h of incubation: 2 h (120 min), 37 °C
Procedure: The primary site of drug metabolism in humans is the liver. Therefore, we used human liver microsomes (HLM) to determine the metabolic stability of selected compounds (Table 3). The compounds were incubated with HLMs for 2 h, and the resulting mixtures were analyzed with UPLC-MS (for details including the UPLC-MS spectra, see Table S10 and Figures S17–S22 in the SI).
All protocols used for the evaluation of drug-like properties (ADME-To parameters) were described in our previous works.[58],[89] Precoated PAMPA Plate System Gentest was obtained from Corning, (Tewksbury, MA, USA). The metabolic stability assay was performed on human liver microsomes (HLMs, Sigma-Aldrich, St. Louis, MO, USA). The assays with microsomes were supported by MetaSite 6.0.1 software (Molecular Discovery Ltd. Hertfordshire, UK). To predict potential drug–drug interactions (DDIs) the influence on CYP3A4, CYP2D6, and CYP2C9 were carried with use of respective P450-Glo kit (Promega, Madison, WI, USA). The luminescence signal and absorbance were measured by using a microplate reader EnSpire PerkinElmer (Waltham, MA, USA). The LC/MS/MS analyses used in PAMPA and the assays with use of HLMs were obtained on Waters ACQUITY TQD system (Waters, Milford, CT, USA). […] Statistical significances and IC50 values were calculated by Graph Pad Prism 9 software.
Table S9. Differences in binding energies given for methods in gas and water environment.
Method gas [kcal/mol] water [kcal/mol]
Metabolic stability of compounds 11 and 36 in human liver microsomes (HLMs)
Table S10. The molecular masses and metabolic pathways of compounds 11 and 36 determined using human liver microsomes.
Substrate mass % mass of the Metabolic pathway*
(m/z) remaining metabolite
*most probable metabolic pathways were estimated by MS analyses supported by in silico prediction using MetaSite 6.0.1 and ADMET Predictor tools
Figure S17. The MetaSite 6.0.1. software prediction of the most probabl e sites of compounds’ 11 and 36 metabolism. The darker the red color - the higher the probability of being involved […]

GSK-3β [2] = target: T1, GSK-3β (Homo sapiens, UniProt P49841); assay: biochemical; conditions: read-out: increase of the melting point of the protein
Procedure: (§1) We evaluated the pharmacological properties of the compounds in vitro against GSK-3β using the GSK-3β Kinase Enzyme System followed by ADP-Glo bioluminescent assay.[50] The principle of the assay is to determine the amount of ADP formed from ATP in the kinase reaction. […] Additionally, compounds 11 and 36 in complex with GSK-3β were analyzed by the proteins’ melting temperature determination using Thermal Shift Assay (see Figure S1 in the SI).
Target sequence in this assay (P49841 26-383): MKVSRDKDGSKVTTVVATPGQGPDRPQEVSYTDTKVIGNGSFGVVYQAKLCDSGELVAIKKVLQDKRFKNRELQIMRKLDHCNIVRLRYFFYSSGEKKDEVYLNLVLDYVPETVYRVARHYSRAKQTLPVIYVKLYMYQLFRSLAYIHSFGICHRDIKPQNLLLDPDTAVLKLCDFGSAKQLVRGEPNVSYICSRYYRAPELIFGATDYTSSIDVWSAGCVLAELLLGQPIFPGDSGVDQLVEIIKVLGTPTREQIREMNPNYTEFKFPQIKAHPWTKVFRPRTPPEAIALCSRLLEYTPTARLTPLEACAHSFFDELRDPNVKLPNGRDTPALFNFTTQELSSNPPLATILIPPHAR

GSK-3β [3] = target: T1, GSK-3β; assay: biochemical
Procedure: as §1
Target sequence in this assay (P49841 whole entry): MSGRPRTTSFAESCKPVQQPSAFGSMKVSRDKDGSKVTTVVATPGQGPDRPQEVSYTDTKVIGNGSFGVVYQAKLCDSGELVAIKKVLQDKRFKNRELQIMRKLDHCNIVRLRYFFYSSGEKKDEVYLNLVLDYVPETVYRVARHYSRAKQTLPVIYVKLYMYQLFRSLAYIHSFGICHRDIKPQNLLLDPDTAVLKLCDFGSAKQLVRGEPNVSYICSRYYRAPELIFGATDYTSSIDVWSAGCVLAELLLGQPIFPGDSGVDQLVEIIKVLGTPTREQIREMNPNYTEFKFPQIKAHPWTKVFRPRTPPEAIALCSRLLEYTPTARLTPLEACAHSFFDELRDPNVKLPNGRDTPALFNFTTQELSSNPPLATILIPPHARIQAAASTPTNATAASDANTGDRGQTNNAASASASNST
The inhibitory activities of the tested compounds against the GSK-3β human recombinant kinase were measured using Promega’s GSK-3β Kinase Enzyme System (Promega; Madison, WI, USA), according to the provided manufacturer’s instruction, using the low-volume white polystyrene 384-well plates. The ADP-Glo Assay (Promega; Madison, WI, USA) was used for bioluminescent detection of the kinase activity. Tested compounds were prepared as 1 mM stock solutions in DMSO and diluted with the Kinase Assay Buffer before use (40 mM Tris, pH 7.5, enriched with 50 μM dithiothreitol; DTT) to obtain the desired compounds’ concentrations. The kinase enzyme, GSK-3β-substrate (derived from human muscle glycogen synthase 1), and ATP were also diluted in the assay buffer before use. At first, GSK-3β (10 ng per well) was incubated with the tested sample (10 μM in well) for 5 min. In the case of blank wells, the DMSO solution (1% in well) was used instead of the target samples’ solutions. After the incubation period, ATP (25 μM in well) and GSK-3β-substrate (0.2 μg/μL in well) were added to start the enzymatic reaction. The reaction mixture was kept at room temperature for 1 h, followed by the addition of the ADP-Glo reagent, to terminate the kinase reaction and deplete any remaining ATP. After the following 40 min—a second reagent (Kinase Detection Reagent) was applied to convert the obtained ADP to ATP and to generate light from the newly synthesized ATP using a luciferase/luciferin reaction. The mixture was kept for another 30 min at room temperature, then the luminescence was measured. Based on equation 100 – (S/B) × 100 (where S and B were the respective enzyme activities with and without the tested sample, respectively) the percent of inhibition of GSK-3β for each compound was calculated. […] Calculations were made using nonlinear regression (GraphPad Prism 9; GraphPad Software, San Diego, CA, USA) by plotting the residual enzyme activities against the applied inhibitor concentration. […] Each data point was collected in triplicate.

HT-22 cells = assay: Cytotoxicity in HT-22 cells (PrestoBlue); conditions: whole range of concentrations 0.1–100 μM
Procedure: The compounds were tested at 5 concentrations (0.1, 1, 10, 50, and 100 μM).
Mouse Hippocampal Neuronal Cell Line (HT-22) was a generous gift from Dr Bartosz Pomierny of the Department of Biochemical Toxicology, Jagiellonian University Medical College, Krakow, Poland. Cells were cultured in Dulbecco’s modified Eagle’s Medium—high glucose (DMEM, Glutamax Thermo Fisher) supplemented with 10% heat-inactivated fetal bovine serum (Thermo Fisher), 100 IU/mL penicillin (Merck) and 100 μg/mL streptomycin (Merck). Cells were cultured in flasks (area 175 cm^2, Nunc), and incubated at 37 °C, 5% CO2. For the measurement of cell viability and neuroprotective effect against okadaic acid cells were placed in a 96-well culture plate (2 × 10^4 cells per well, Falcon). Before the tests, cells were grown for 24 h in the incubator (37 °C, 5% CO2).
Cell viability was evaluated using the PrestoBlue reagent (ThermoFisher), according to the manufacturer’s procedures.[87] Following 24 h of incubation with the tested molecule, PrestoBlue reagent was added to a microplate well in an amount equal to one-tenth of the remaining medium volume. The resulting mixture was incubated for 15 min at 37 °C, and the fluorescence intensity (EX 530 nm; EM 580 nm) was measured in the plate reader POLARstar Omega, (BMG Labtech).

Question: For `NC(=O)N1CC=C(c2ccnc(NC(=O)C3CC3)c2)C1` [Compound 11, 3-(2-(Cyclopropanecarboxamido)pyridin-4-yl)-2,5-dihydro-1H-pyrrole-1-carboxamide], which “% of the compound remaining after 2 h of incubation” value [1] is on record?
Answer: Its value is 100%.

Question: And the ΔTm at 10 µM (GSK-3β [2])?
Answer: Its ΔTm at 10 µM is 13 °C.

Question: What about the IC50 (GSK-3β [3]) of the same compound?
Answer: The IC50 was 141 ± 5 nM.

Question: What does the source list for `O=C(Nc1cc(-c2ccc(-c3ncon3)s2)ccn1)C1CC1` [Compound 36, N-(4-(5-(1,2,4-Oxadiazol-3-yl)thiophen-2-yl)pyridin-2-yl)cyclopropanecarboxamide]?
Answer: % of the compound metabolized ([1]; 2 h): 11%; % of the compound remaining after 2 h of incubation [1]: 88.61% and 88.6%; cell viability in HT-22 cells (HT-22 cells): No significant decrease in cell viability; ΔTm at 10 µM (GSK-3β [2]): 14 °C; IC50 (GSK-3β [3]): 70 ± 1 nM
